Entries after “also recorded” stand apart in the source; their conditions may differ.

Data on one compound can be found in US20230014352A1, “INHALED STATINS AS BRONCHODILATORS TO IMPROVE LUNG FUNCTION IN RESPIRATORY DISEASES” (priority 2019, published 2023).

Series [1] has as its system primary human airway smooth muscle (ASM) cells. In words: Contractile force screening (CFS), basal ASM cell contraction (strain energy). The class given is cell-based. The note with it: donors D1-D6, FIG. 11A.
In series [2] the test system is precision-cut human lung slices. In words: Histamine-induced bronchoconstriction in precision-cut human lung slices, pitavastatin and isoproterenol. The note with it: 5 μM, 24 hours. How it is done: The experiment was performed under serum-deprived media conditions, n=3-7 airways per group. Changes in lumen narrowing were reported as percentage changes (±SEM) of the pre-treatment state (see FIG. 13). The absolute value of lumen airway area was not statistically different between the pitavastatin and control groups at the pre-treatment state.

For series [3], the system named is bronchial airways of human PCLS. In words: Histamine-induced airway constriction in human PCLS. Conditions: pre-treated 24 hrs, compared to vehicle, FIG. 11C. The text has this: A non-transplantable non-asthmatic human donor lung was obtained through the Gift of Hope/Regional Organ Bank of Illinois, and sliced as per published protocols. Briefly, the lung lobe was filled with 1.5% low melting temperature agarose (Type IX; Sigma, St. Louis, Mo.) in Hanks balanced salt solution (pH=7.4; Invitrogen, Carlsbad, Calif.), and sliced using a VT1200S vibrating blade microtome (Leica Microsystems, Bannockburn, Ill.) to create 250 μm thick slices. Slices were cryopreserved till the day of the experiment.
Slices were treated with pitavastatin (2 μM) for 24 hrs, before challenge with histamine (1 μM). Airway constriction was measured as luminal area changes in response to increasing doses of histamine. In both sets of PCLS samples, airway lumen area was quantified from bright field images using the Fiji image analysis software.

In series [4] the test system is eotaxin-3. In words: IL13/TNFα-induced eotaxin-3 peptide secretion by ASM cells. It is filed as cell-based, human. The note with it: 2 mM pitavastatin, 72 hrs; cytokines 18 hrs at 10 ng/mL; 10% FBS; FIG. 14A. The procedure:
Non-asthmatic primary human ASM cells were grown to confluence and were either untreated or pre-treated with 2 mM pitavastatin and GGPP (10 mM) for a total of 72 hours. Total cytokine stimulation was for 18 hours at 10 ng/mL. […] All experiments were conducted under serum-containing media conditions (10% FBS).

The next series relates to F-actin. In words: F-actin expression, immunostaining. It is filed as cell-based, human. Conditions: 24 hrs; for basal F-actin expression: 1 μM, FIG. 15A/15B. How it is done: (§1) Non-asthmatic primary human ASM cells were treated with either vehicle or pitavastatin (1 μM) for 24 hours. Cells were then immuno-stained for F-actin expression. […] Cell lysates were analyzed by western blot for total ROCK-1, total ROCK-2, total MLC-2, and phosphorylated MLC-2. As shown in FIGS. 15C and 15D, pitavastatin reduced the total expression of ROCK-1, ROCK-2, and MLC-2 (total and phosphorylated).
Non-asthmatic primary human ASM cells were co-treated with 1 μM pitavastatin (Pit), Pit with 10 μM GGPP, or Pit with 10 μM GGPP plus 100 μM MA for 24 hrs.

The test system of the next series is ROCK-2. The series can be described thus: Total ROCK-2 expression, western blot. Conditions: 1 μM, 24 hrs, FIG. 15C. It is filed as cell-based, human. How it is done:
as §1

In another series the test system is ASM cells. The series can be described thus: Simulated deep breath (stretch-unstretch), cell mapping rheometry and CFS. Conditions: 1 μM, 24 hrs; for force recovery after single stretch-unstretch maneuver (stretch-induced ASM force relaxation): 10% magnitude, 4-sec stretch, recovery over 180 seconds, FIG. 12B. It is filed as cell-based, human. The procedure:
Well-defined biaxial stretch (4 sec duration, 10% magnitude) was imposed using the method of cell mapping rheometry. The strain energy from each ASM force map was computed as a metric of average cellular contraction, and reported as fold changes to the pre-stretch baseline value.
Normal ASM was treated with pitavastatin (1 μM, 24 hrs, n=7), isoproterenol (10 μM, 30 min, n=6) or vehicle (n=7), and examined by CFS as described above. […] Shown are contraction values normalized to the untreated control group. […] The contraction force gradually recovered over 180 seconds. […] All data are reported as mean and standard error of the mean (SEM).

Another series deals with mouse PCLS. The series can be described thus: Viability of mouse PCLS (lung tissue toxicity). Conditions: FIG. 10F.
The subject of series [5] is eotaxin-3. In words: Cytokine mixture (CM)-induced eotaxin-3 expression in ASM cells, dexamethasone with or without pitavastatin. It is filed as cell-based, human. The note with it: pitavastatin 0.1, 0.5 or 1 μM added to dexamethasone 0.1, 1 or 5 μM, 60 hrs; CM 15 hrs; FIG. 18. The procedure: Primary human airway smooth muscle cells were cultured to confluence in serum-containing media (10% FBS), then pre-treated with dexamethasone (“Dex”) at 0.1, 1, or 5 μM, with or without pitavastatin (“Pit”) at 0.1, 0.5, or 1 μM concentrations for 60 hrs. The ASM cells were then exposed to a mixture of cytokines ([…] IL-13, IL-17, and TNFα, “CM”) for 15 hrs, and the expression of eotaxin-3 was measured. “NT” means no treatment.

Another series concerns airways of C57BL/6 mice. In words: Non-inflammatory methacholine (MCh)-induced hypercontractile mouse model, airway % contraction in precision-cut lung slices. The note with it: intratracheal 5 mg/kg for 5 days, 1 hr prior to each MCh nebulization. The class given is in vivo. The procedure:
In this model, mice were administered nebulized methacholine (MCh) during postnatal maturation of ASM, which causes a hypercontractile phenotype without any induction of inflammatory responses.
All mouse experiments were approved by the Institutional Animal Care and Use Committee at Brigham & Women's Hospital, Harvard Medical School. The methacholine-induced hypercontractile mouse model has been described in K. R. Patel et al., FASEB J (2017) 31(10):4335-46. Briefly, mice (C57BL/6) were exposed to nebulized MCh (30 mg/mL) for 10 min daily between P15 and −20 (5 days). Control mice were administered nebulized normal saline. This establishes the MCh hyper-contractility asthma phenotype, a non-inflammatory model of asthmatic airway hyperresponsiveness AHR. Mice were administered intratracheal (i.t.) pitavastatin (5 mg/kg for five days) or vehicle control for 1 hour before each MCh nebulization. For airway % contraction assays, mouse precision-cut lung slices (PCLS) were stimulated to contract by increasing MCh concentrations (0.1-100 μM). For each measurement, at least n=4 mice were used from 2 independent experiments, and a total of 20-30 airways per lung.

A further series relates to ROCK-1. In words: Total ROCK-1 expression, western blot. It is filed as cell-based, human. Conditions: 1 μM, 24 hrs, FIG. 15C. The procedure:
(§2) Antibodies for western blot analysis against total and phospho-MLC2 were obtained from Santa Cruz Biotechnology and Cell Signaling Technology, respectively. Antibodies for pROCK1, total ROCK1, and GAPDH were obtained from Abcam. Pitavastatin was obtained from Santa Cruz Biotechnology.
as §1
(Immunoblotting shows a protein as a band on a membrane.)

The test system of series [6] is Rho kinase (ROCK-1) phosphorylation. In words: Histamine-induced ROCK-1 phosphorylation, western blot. It is filed as cell-based, human. The note with it: 24 hrs; for inhibitory effect on ROCK-1 phosphorylation with mevalonate co-treatment: 1 μM with MA 200 μM. How it is done:
as §2
Human ASM cells were treated with pitavastatin (1 μM) with or without mevalonate (MA, 200 μM) for 24 hours, then treated with histamine (10 μM) for 5 minutes.

Consider `O=C(O)C[C@H](O)C[C@H](O)/C=C/c1c(C2CC2)nc2ccccc2c1-c1ccc(F)cc1` [pitavastatin], for which the “ASM contraction in asthmatic and non-asthmatic donor cells” value in series [1] is reported as “dose-dependently inhibited ASM contraction; also recorded: inhibited ASM contraction dose-dependently”. Also, the “interference with the β2-agonist effect of isoproterenol” value in series [2] is on record as “did not interfere; also recorded: does not interfere”. For the same compound, in [2] (histamine 10 μM 15 min, serum-deprived, FIG. 13), the “histamine (Hist)-induced bronchoconstriction” value is listed as “reduced”. Also, the entries for the “1 μM histamine-induced airway constriction (lumen narrowing)” value in [3] and in [3] (listed as Pit) were “significantly inhibited” and “significantly reduced”, respectively. In addition, the “IL13/TNFα-induced eotaxin-3 peptide secretion” value in the series with eotaxin-3 [4] is “inhibited”. Further, the “reductions of F-actin expression and ASM contraction with GGPP and MA co-treatment” value with F-actin (1 μM Pit with 10 μM GGPP, or with 10 μM GGPP and 100 μM MA, FIG. 15B) is on record as “abrogated”. The “basal F-actin expression” value in the series with F-actin is “significantly reduced”; in the series with F-actin (listed as Pit), “reduced F-actin expression; also recorded: significantly reduced”. In the series on ROCK-2, the “total (basal) expression of ROCK-2” value is reported as “reduced”. Besides, the “basal ASM contraction compared to untreated controls” value in the series with ASM cells (FIG. 12A) is reported as “significantly inhibited basal ASM contraction”. Besides, the “force recovery after single stretch-unstretch maneuver (stretch-induced ASM force relaxation)” value was “significantly inhibited” in the series with ASM cells and “augmented stretch-induced ASM force relaxation” in the series on ASM cells (listed as Pitavastatin). In addition, the lung tissue toxicity result with mouse PCLS was “did not demonstrate any”. Moreover, the eotaxin-3 expression result in the series with eotaxin-3 [5] is listed as “Significant reductions in eotaxin-3 expression”. Moreover, the “% airway contraction” value in the series with airways of C57BL/6 mice (FIG. 11B) was 14.2%. The “% contraction of airways” value in the series on airways of C57BL/6 mice (PCLS response to 500 nM MCh, FIG. 6) amounted to 7.3%. Also, the “total (basal) expression of ROCK-1” value in the series with ROCK-1 is “reduced”. For the same compound, the results for the “inhibitory effect on ROCK-1 phosphorylation with mevalonate co-treatment” value in [6] and in [6] (listed as Pit) were “abrogated” and “abrogates”, respectively. The “histamine-induced ROCK1 phosphorylation” value in series [6] (1 μM, histamine 10 μM, 5 min, FIG. 5A) is “significantly reduced; also recorded: inhibits”.
